Tests used:
human PI3K(p110α/p85α) = human PI3K(p110α/p85α) (Homo sapiens, UniProt P42336); test: Measurement of PI3K inhibitory activity (AlphaScreen GST Detection Kit); type: biochemical; conditions: 10 μM ATP, 4 μM PI(4,5)P2, read-out: Enzyme inhibitory activity (IC50, μM) PI3K α
Experimental: The inhibitory activity of compounds of the present invention represented by formula (I) were measured with human PI3K(p110α/p85α) prepared in a baculovirus expression system using the AlphaScreen GST Detection Kit (Perkin Elmer, Inc.). A predetermined concentration of the compound dissolved in dimethylsulfoxide (DMSO) and PI3K were mixed in a 384-well assay plate and after allowing to stand for 20 minutes at room temperature, 4 μM PI(4,5)P2 (Echelon Corporation) and 10 μM ATP (5 mM Hepes, pH 7.5, 2.5 mM MgCl2) were added to initiate the reaction. After reacting for 15 minutes at 37° C., GST-GRP1 expressed and purified from Escherichia coli, Anti-GST Acceptor Beads (Perkin Elmer, Inc.), Streptavidin Donor Beads (Perkin Elmer, Inc.) and biotin-PI(3,4,5) P3 (Echelon Corporation) (10 mM Tris-HCl pH 7.4, 150 mM NaCl, 7.5 mM EDTA, 1 mM DTT, 0.1% Tween 20) were added, and after allowing to stand for 1 hour at room temperature, light at 520 to 620 nm emitted as a result of exciting with light at 680 nm was measured with the Envision measuring instrument (Perkin Elmer, Inc.).
Test Example 1 described above can be performed according to “Analytical Biochemistry, 2003, 313, 234-245; Alexander Gray et al”.

[1] = tested on: human colon cancer cell line HCT116; test: Cell proliferation inhibitory activity (Cell Counting Kit-8), colon cancer HCT116; type: cell-based; conditions: HCT-116, 96 h, HCT116, 4 days
Experimental: (§1) The cell proliferation inhibitory activity was measured for compounds of the present invention represented by formula (I). Cancer cell proliferation inhibitory activity was measured using the Cell Counting Kit-8 (Dojindo). 2000 cells each of human colon cancer cell line HCT116 purchased from the American Type Culture Collection (Virginia, USA) were seeded into each well of a 96-well culture plate followed by the addition of a predetermined concentration of the compounds and cultivating in a CO2environment for 4 days at 37° C. On the fourth day of cultivating, the Cell Counting Kit-8 solution was added and absorbance (measuring wavelength: 450 nm, reference wavelength: 615 nm) was measured in accordance with the protocol provided with the kit.

[2] = tested on: human prostate cancer cell line PC3; test: Cell proliferation inhibitory activity (Cell Counting Kit-8), prostate cancer PC3; type: cell-based; conditions: 96 h, PC3, 4 days
Experimental: as §1
(§2) Cancer cell proliferation inhibitory activity was also measured for human lung cancer cell line NCI-H460 and human prostate cancer cell line PC3 purchased from the American Type Culture Collection. 1000 and 3000 cells of NCI-H460 and PC3, respectively, were seeded into each well of a 96-well culture plate followed by testing in the same manner as the human colon cancer cell line and calculating the percentage of cell proliferation inhibition at 2.5 μM.

[3] = tested on: human lung cancer cell line NCI-H460; test: Cell proliferation inhibitory activity (Cell Counting Kit-8), lung cancer NCI-H460; type: cell-based; conditions: 96 h, NCI-H460, 4 days, read-out: Cell proliferation inhibitory activity (% Inhibition at 2.5 μM) Non-small cell lung cancer (NCI-H460)
Experimental: as §1, §2

human PI3K(p110α/p85α), sequence (P42336 whole entry): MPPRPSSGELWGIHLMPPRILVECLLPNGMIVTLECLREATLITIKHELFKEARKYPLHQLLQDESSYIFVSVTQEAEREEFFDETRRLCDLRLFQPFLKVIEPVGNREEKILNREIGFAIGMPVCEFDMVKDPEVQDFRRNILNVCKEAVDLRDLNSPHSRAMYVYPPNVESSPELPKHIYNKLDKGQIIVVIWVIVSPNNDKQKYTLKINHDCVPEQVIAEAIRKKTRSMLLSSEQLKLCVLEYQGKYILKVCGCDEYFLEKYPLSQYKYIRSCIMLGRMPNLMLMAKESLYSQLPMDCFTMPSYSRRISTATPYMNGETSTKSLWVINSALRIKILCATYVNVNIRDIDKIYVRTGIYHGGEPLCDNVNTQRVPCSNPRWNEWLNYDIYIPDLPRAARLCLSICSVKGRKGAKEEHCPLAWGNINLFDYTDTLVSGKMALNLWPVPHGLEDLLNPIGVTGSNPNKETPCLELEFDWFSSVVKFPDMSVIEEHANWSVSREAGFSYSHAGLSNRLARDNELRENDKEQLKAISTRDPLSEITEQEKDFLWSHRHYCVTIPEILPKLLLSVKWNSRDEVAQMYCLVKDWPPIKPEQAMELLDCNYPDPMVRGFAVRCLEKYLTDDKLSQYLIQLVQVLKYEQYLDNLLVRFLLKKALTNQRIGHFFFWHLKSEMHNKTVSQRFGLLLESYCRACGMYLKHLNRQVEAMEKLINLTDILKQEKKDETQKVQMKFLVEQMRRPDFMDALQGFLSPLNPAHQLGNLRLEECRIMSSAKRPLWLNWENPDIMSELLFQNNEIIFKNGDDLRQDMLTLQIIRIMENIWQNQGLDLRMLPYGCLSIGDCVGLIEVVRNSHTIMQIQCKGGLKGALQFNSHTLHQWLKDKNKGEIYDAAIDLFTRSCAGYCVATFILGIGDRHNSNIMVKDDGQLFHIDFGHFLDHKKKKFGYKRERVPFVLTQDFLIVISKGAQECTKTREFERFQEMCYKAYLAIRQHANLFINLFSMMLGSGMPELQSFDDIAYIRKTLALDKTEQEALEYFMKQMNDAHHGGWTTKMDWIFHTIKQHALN
human PI3K(p110α/p85α), sequence (P27986 whole entry partner): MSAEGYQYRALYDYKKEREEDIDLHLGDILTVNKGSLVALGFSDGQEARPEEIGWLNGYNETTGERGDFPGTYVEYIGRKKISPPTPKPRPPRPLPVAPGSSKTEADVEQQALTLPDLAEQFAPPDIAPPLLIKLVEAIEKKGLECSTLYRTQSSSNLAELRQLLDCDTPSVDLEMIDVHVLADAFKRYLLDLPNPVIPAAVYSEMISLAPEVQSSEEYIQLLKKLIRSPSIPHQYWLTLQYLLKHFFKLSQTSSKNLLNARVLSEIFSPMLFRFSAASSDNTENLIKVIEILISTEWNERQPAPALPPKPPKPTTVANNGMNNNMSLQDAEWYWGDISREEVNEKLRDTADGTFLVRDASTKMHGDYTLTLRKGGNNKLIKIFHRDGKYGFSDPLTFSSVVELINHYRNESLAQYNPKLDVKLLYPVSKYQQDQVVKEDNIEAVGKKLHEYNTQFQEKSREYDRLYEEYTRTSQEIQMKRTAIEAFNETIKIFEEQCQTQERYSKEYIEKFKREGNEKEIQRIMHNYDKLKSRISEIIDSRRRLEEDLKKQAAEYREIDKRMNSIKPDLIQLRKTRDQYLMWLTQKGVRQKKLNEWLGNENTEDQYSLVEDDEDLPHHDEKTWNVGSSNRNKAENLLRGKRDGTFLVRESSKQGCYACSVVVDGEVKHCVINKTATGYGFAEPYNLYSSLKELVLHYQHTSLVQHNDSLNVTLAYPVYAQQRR

Compound | IC50 (human PI3K(p110α/p85α)) [µM] | inhibition at 2.5 µM [1] [%] | inhibition at 2.5 µM [2] [%] | inhibition at 2.5 µM [3] [%]
Cc1ccc(C(=O)N2CCN(C)CC2)cc1NC(=O)N1CCc2c(-c3cnc(N)nc3)nc(N3CCOCC3)nc21 [Example D-223, 4-(2-Amino-pyrimidin-5-yl)-2-morpholin-4-yl-5,6-dihydro-pyrrolo[2,3-d]pyrimidine-7-carboxylic acid [2-methyl-5-(4-methyl-piperazine-1-carbonyl)-phenyl]-amide] | 0.007 | 95 | 95 | 92
Nc1ncc(-c2nc(N3CCOCC3)nc3c2CCN3C(=O)Nc2c(F)cc(N3CCOCC3)cc2F)cn1 [Example D-273, 4-(2-Amino-pyrimidin-5-yl)-2-morpholin-4-yl-5,6-dihydro-pyrrolo[2,3-d]pyrimidine-7-carboxylic acid (2,6-difluoro-4-morpholin-4-yl-phenyl)-amide] | 0.01 | 83 | 79 | 67
Nc1ncc(-c2nc(N3CCOCC3)nc3c2CCN3c2ccc(C(=O)N3CCN(c4ccncc4)CC3)cc2F)cn1 [Example D-286, {4-[4-(2-Amino-pyrimidin-5-yl)-2-morpholin-4-yl-5,6-dihydro-pyrrolo[2,3-d]pyrimidin-7-yl]-3-fluoro-phenyl}-(4-pyridin-4-yl-piperazin-1-yl)-methanone] | 0.008 | 94 | 89 | 97
Nc1ncc(-c2nc(N3CCOCC3)nc3c2CCN3c2ccc(C(=O)N3CCC(N4CCOCC4)CC3)cc2)cn1 [Example D-307, {4-[4-(2-Amino-pyrimidin-5-yl)-2-morpholin-4-yl-5,6-dihydro-pyrrolo[2,3-d]pyrimidin-7-yl]-phenyl}-(4-morpholin-4-yl-piperidin-1-yl)-methanone] | 0.009 | 87 | 89 | 58
CN(Cc1cccnc1)C(=O)c1ccc(N2CCc3c(-c4cnc(N)nc4)nc(N4CCOCC4)nc32)c(F)c1 [Example D-318, 4-[4-(2-Amino-pyrimidin-5-yl)-2-morpholin-4-yl-5,6-dihydro-pyrrolo[2,3-d]pyrimidin-7-yl]-3-fluoro-N-methyl-N-pyridin-3-ylmethyl-benzamide] | 0.007 | 96 | 94 | 89
CN1CCN(Cc2ccc(N3CCc4c(-c5cnc(N)nc5)nc(N5CCOCC5)nc43)cc2F)CC1 [Example D-325, 5-{7-[3-fluoro-4-(4-methyl-piperazin-1-ylmethyl)-phenyl]-2-morpholin-4-yl-6,7-dihydro-5H-pyrrolo[2,3-d]pyrimidin-4-yl}-pyrimidin-2-ylamine] | 0.11 | 78 | 73 | 81
CN1CCN(Cc2ccc(N3CCc4c(-c5cnc(N)nc5)nc(N5CCOCC5)nc43)c(F)c2)CC1 [Example D-326, 5-{7-[2-fluoro-4-(4-methyl-piperazin-1-ylmethyl)-phenyl]-2-morpholin-4-yl-6,7-dihydro-5H-pyrrolo[2,3-d]pyrimidin-4-yl}-pyrimidin-2-ylamine] | 0.24 | 72 | 81 | 83
CCCN1CCN(Cc2ccc(N3CCc4c(-c5cnc(N)nc5)nc(N5CCOCC5)nc43)cc2)CC1 [Example D-327, 5-{2-morpholin-4-yl-7-[4-(4-propyl-piperazin-1-ylmethyl)-phenyl]-6,7-dihydro-5H-pyrrolo[2,3-d]pyrimidin-4-yl}-pyrimidin-2-ylamine] | 0.07 | 78 | 79 | 85
Nc1ncc(-c2nc(N3CCOCC3)nc3c2CCN3c2ccc(CN3CCN(CCF)CC3)cc2)cn1 [Example D-329, 5-(7-{4-[4-(2-fluoroethyl)-piperazin-1-ylmethyl]-phenyl}-2-morpholin-4-yl-6,7-dihydro-5H-pyrrolo[2,3-d]pyrimidin-4-yl)-pyrimidin-2-ylamine] | 0.26 | 73 | 65 | 81

Continued by falling IC50 (human PI3K(p110α/p85α)), values first:

IC50 (human PI3K(p110α/p85α)) [µM] | Compound | inhibition at 2.5 µM [1] [%] | inhibition at 2.5 µM [2] [%] | inhibition at 2.5 µM [3] [%]
0.21 | Nc1ncc(-c2nc(N3CCOCC3)nc3c2CCN3c2ccc(CN3CCN(CCC(F)(F)F)CC3)cc2)cn1 [Example D-332, 5-(2-morpholin-4-yl-7-{4-[4-(3,3,3-trifluoropropyl)piperazin-1-ylmethyl]-phenyl}-6,7-dihydro-5H-pyrrolo[2,3-d]pyrimidin-4-yl}-pyrimidin-2-ylamine] | 60 | 43 | 54
0.06 | CC(C)N1CCN(Cc2ccc(N3CCc4c(-c5cnc(N)nc5)nc(N5CCOCC5)nc43)cc2)CC1 [Example D-328, 5-{7-[4-(4-isopropyl-piperazin-1-ylmethyl)-phenyl]-2-morpholin-4-yl-6,7-dihydro-5H-pyrrolo[2,3-d]pyrimidin-4-yl}-pyrimidin-2-ylamine] | 84 | 84 | 91
0.011 | CN1CCN(C(=O)c2ccc(NC(=S)N3CCc4c(-c5cnc(N)nc5)nc(N5CCOCC5)nc43)cc2)CC1 [Example D-231, 4-(2-Amino-pyrimidin-5-yl)-2-morpholin-4-yl-5,6-dihydro-pyrrolo[2,3-d]pyrimidine-7-carbothioic acid [4-(4-methyl-piperazine-1-carbonyl)-phenyl]-amide] | 33 | 37 | 71
0.01 | CCN1CCN(c2ccc(NC(=O)N3CCc4c(-c5cnc(N)nc5)nc(N5CCOCC5)nc43)c(C)c2)CC1 [Example D-242, 4-(2-Amino-pyrimidin-5-yl)-2-morpholin-4-yl-5,6-dihydro-pyrrolo[2,3-d]pyrimidine-7-carboxylic acid [4-(4-ethyl-piperazin-1-yl)-2-methyl-phenyl]-amide] | 99 | 100 | 55
0.009 | CCN1CCN(c2ccc(C)c(NC(=S)N3CCc4c(-c5cnc(N)nc5)nc(N5CCOCC5)nc43)c2)CC1 [Example D-290, 4-(2-Amino-pyrimidin-5-yl)-2-morpholin-4-yl-5,6-dihydro-pyrrolo[2,3-d]pyrimidine-7-carbothioic acid [5-(4-ethyl-piperazin-1-yl)-2-methyl-phenyl]-amide] | 99 | 99 | 18
0.008 | Nc1ncc(-c2nc(N3CCOCC3)nc3c2CCN3c2ccc(CC(=O)N3CCNCC3)cc2)cn1 [Example D-172, 2-{4-[4-(2-Amino-pyrimidin-5-yl)-2-morpholin-4-yl-5,6-dihydro-pyrrolo[2,3-d]pyrimidin-7-yl]-phenyl}-1-piperazin-1-yl-ethanone] | 86 | 86 | 79
0.007 | Nc1ncc(-c2nc(N3CCOCC3)nc3c2CCN3c2ccc(C(=O)NCc3ccncc3)cc2)cn1 [Example D-264, 4-[4-(2-Amino-pyrimidin-5-yl)-2-morpholin-4-yl-5,6-dihydro-pyrrolo[2,3-d]pyrimidin-7-yl]-N-pyridin-4-ylmethyl-benzamide] | 63 | 72 | 82
0.006 | Nc1ncc(-c2nc(N3CCOCC3)nc3c2CCN3c2ccc(C(=O)N3CCN(c4ccncc4)CC3)cc2)cn1 [Example D-265, {4-[4-(2-Amino-pyrimidin-5-yl)-2-morpholin-4-yl-5,6-dihydro-pyrrolo[2,3-d]pyrimidin-7-yl]-phenyl}-(4-pyridin-4-yl-piperazin-1-yl)-methanone] | 98 | 96 | 71
0.005 | Cc1ccc(N2CCOCC2)cc1NC(=O)N1CCc2c(-c3cnc(N)nc3)nc(N3CCOCC3)nc21 [Example D-237, 4-(2-Amino-pyrimidin-5-yl)-2-morpholin-4-yl-5,6-dihydro-pyrrolo[2,3-d]pyrimidine-7-carboxylic acid (2-methyl-5-morpholin-4-yl-phenyl)-amide] | 95 | 97 | 84
